Measured values as given in patent US9682974B2, “Heteroaryl substituted pyrazoles” (BAYER PHARMA AKTIENGESELLSCHAFT, priority 2013, dated 2017).

Assays:
[1] = biological target: T1, catalytic domain of human Bub1 (amino acids 704-1085) (Homo sapiens, UniProt O43683); assay: Bub1 kinase assay (TR-FRET); type: biochemical; conditions: 10 μM ATP, 1 μM peptide substrate, read-out: Biological Assay 1: Bub1 kinase assay median IC50
T1 construct: catalytic domain of human Bub1 (amino acids 704-1085); His6 (N); made in house; host or cells: Hi5 insect cells
Source text: Bub1-inhibitory activities of compounds described in the present invention were quantified using a time-resolved fluorescence energy transfer (TR-FRET) kinase assay which measures phosphorylation of the synthetic peptide Biotin-Ahx-VLLPKKSFAEPG (SEQ ID No. 1) (C-terminus in amide form), purchased from e.g. Biosyntan (Berlin, Germany) by the (recombinant) catalytic domain of human Bub1 (amino acids 704-1085), expressed in Hi5 insect cells with an N-terminal His6-tag and purified by affinity- (Ni-NTA) and size exclusion chromatography.
In a typical assay 11 different concentrations of each compound (0.1 nM, 0.33 nM, 1.1 nM, 3.8 nM, 13 nM, 44 nM, 0.15 μM, 0.51 μM, 1.7 μM, 5.9 μM and 20 μM) were tested in duplicate within the same microtiter plate. To this end, 100-fold concentrated compound solutions (in DMSO) were previously prepared by serial dilution (1:3.4) of 2 mM stocks in a clear low volume 384-well source microtiter plate (Greiner Bio-One, Frickenhausen, Germany), from which 50 nL of compounds were transferred into a black low volume test microtiter plate from the same supplier. Subsequently, 2 μL of Bub1 (the final concentration of Bub1 was adjusted depending on the activity of the enzyme lot in order to be within the linear dynamic range of the assay: typically ˜200 ng/mL were used) in aqueous assay buffer [50 mM Tris/HCl pH 7.5, 10 mM magnesium chloride (MgCl2), 200 mM potassium chloride (KCl), 1.0 mM dithiothreitol (DTT), 0.1 mM sodium ortho-vanadate, 1% (v/v) glycerol, 0.01% (w/v) bovine serum albumine (BSA), 0.005% (v/v) Trition X-100 (Sigma), 1× Complete EDTA-free protease inhibitor mixture (Roche)] were added to the compounds in the test plate and the mixture was incubated for 15 min at 22° C. to allow pre-equilibration of the putative enzyme-inhibitor complexes before the start of the kinase reaction, which was initiated by the addition of 3 μL 1.67-fold concentrated solution (in assay buffer) of adenosine-tri-phosphate (ATP, 10 μM final concentration) and peptide substrate (1 μM final concentration). The resulting mixture (5 μL final volume) was incubated at 22° C. during 60 min., and the reaction was stopped by the addition of 5 μL of an aqueous EDTA-solution (50 mM EDTA, in 100 mM HEPES pH 7.5 and 0.2% (w/v) bovine serum albumin) which also contained the TR-FRET detection reagents (0.2 μM streptavidin-XL665 [Cisbio Bioassays, Codolet, France] and 1 nM anti-phosho-Serine antibody [Merck Millipore, cat. #35-001] and 0.4 nM LANCE EU-W1024 labeled anti-mouse IgG antibody [Perkin-Elmer, product no. AD0077, alternatively a Terbium-cryptate-labeled anti-mouse IgG antibody from Cisbio Bioassays can be used]). The stopped reaction mixture was further incubated 1 h at 22° C. in order to allow the formation of complexes between peptides and detection reagents. Subsequently, the amount of product was evaluated by measurement of the resonance energy transfer from the Eu-chelate-antibody complex recognizing the Phosphoserine residue to the streptavidin-XL665 bound to the biotin moiety of the peptide. To this end, the fluorescence emissions at 620 nm and 665 nm after excitation at 330-350 nm were measured in a TR-FRET plate reader, e.g. a Rubystar or Pherastar (both from BMG Labtechnologies, Offenburg, Germany) or a Viewlux (Perkin-Elmer) and the ratio of the emissions (665 nm/622 nm) was taken as indicator for the amount of phosphorylated substrate. The data were normalised using two sets of (typically 32-) control wells for high- (=enzyme reaction without inhibitor=0%=Minimum inhibition) and low- (=all assay components without enzyme=100%=Maximum inhibition) Bub1 activity. […] values were calculated by fitting the normalized inhibition data to a 4-parameter logistic equation (Minimum, Maximum, IC50, Hill; Y=Max+(Min−Max)/(1+(X/IC50)Hill)).

[2] = tested on: HeLa human cervical cancer cell line; assay: Proliferation assay (HeLa cell line), crystal violet staining; type: cell-based; conditions: 96 h, HeLa cells, 4 days incubation, read-out: Biological Assay 2: Proliferation assay (HeLa cell line) median IC50
Procedure: Cultivated tumor cells (cells were ordered from ATCC) were plated at a density of 3000 cells/well in a 96-well multititer plate in 200 μL of growth medium supplemented 10% fetal calf serum. After 24 hours, the cells of one plate (zero-point plate) were stained with crystal violet (see below), while the medium of the other plates was replaced by fresh culture medium (200 μL), to which the test substances were added in various concentrations (0 μM, as well as in the range of 0.001-10 μM; the final concentration of the solvent dimethyl sulfoxide was 0.5%). The cells were incubated for 4 days in the presence of test substances. Cell proliferation was determined by staining the cells with crystal violet: the cells were fixed by adding 20 μL/measuring point of an 11% glutaric aldehyde solution for 15 minutes at room temperature. After three washing cycles of the fixed cells with water, the plates were dried at room temperature. The cells were stained by adding 100 μL/measuring point of a 0.1% crystal violet solution (pH 3.0). After three washing cycles of the stained cells with water, the plates were dried at room temperature. The dye was dissolved by adding 100 μL/measuring point of a 10% acetic acid solution. Absorbtion was determined by photometry at a wavelength of 595 nm. The change of cell number, in percent, was calculated by normalization of the measured values to the absorbtion values of the zero-point plate (=0%) and the absorbtion of the untreated (0 μm) cells (=100%). The IC50 values were determined by means of a 4 parameter fit.

T1 sequence (O43683 704-1085): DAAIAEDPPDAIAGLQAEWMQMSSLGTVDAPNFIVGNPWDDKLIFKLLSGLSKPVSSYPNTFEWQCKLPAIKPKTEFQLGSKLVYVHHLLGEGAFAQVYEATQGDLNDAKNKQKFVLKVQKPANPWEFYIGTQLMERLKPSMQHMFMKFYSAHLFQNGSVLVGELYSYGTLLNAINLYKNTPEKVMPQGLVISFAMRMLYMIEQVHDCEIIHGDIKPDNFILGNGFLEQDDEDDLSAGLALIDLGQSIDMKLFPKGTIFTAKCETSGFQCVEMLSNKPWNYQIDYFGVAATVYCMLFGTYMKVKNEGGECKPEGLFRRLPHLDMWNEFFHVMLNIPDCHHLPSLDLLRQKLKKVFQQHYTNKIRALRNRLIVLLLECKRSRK

IC50 [1] [nM]	IC50 [2] [nM]	Compound
34	–	CCOc1cc(F)c(Cn2nc(-c3cc(Nc4ccncn4)n(C)n3)c(C)c2C2CC2)c(F)c1 [Example 2-1-4, 5′-cyclopropyl-1′-(4-ethoxy-2,6-difluorobenzyl)-1,4′-dimethyl-N-(pyrimidin-4-yl)-1H,1′H-3,3′-bipyrazol-5-amine]
≥ 20000	> 10000	CCOc1cc(F)c(Cn2nc(-c3cc(Nc4ccncn4)n(C(C)=O)n3)c(C)c2C2CC2)c(F)c1 [Example 2-1-2, 1-[5′-cyclopropyl-1′-(4-ethoxy-2,6-difluorobenzyl)-4′-methyl-5-(pyrimidin-4-ylamino)-1H,1′H-3,3′-bipyrazol-1-yl]ethanone]
82	–	CCOc1cc(F)c(Cn2nc(-c3n[nH]c(Nc4ccncc4)n3)c(C)c2C2CC2)c(F)c1 [Example 2-3-4, N-{3-[5-cyclopropyl-1-(4-ethoxy-2,6-difluorobenzyl)-4-methyl-1H-pyrazol-3-yl]-1H-1,2,4-triazol-5-yl}pyridin-4-amine]
22	> 10000	CCOc1cc(F)c(Cn2nc(-c3nc(Nc4ccncc4)n(CCO)n3)c(C)c2C2CC2)c(F)c1 [Example 2-3-3, 2-{3-[5-cyclopropyl-1-(4-ethoxy-2,6-difluorobenzyl)-4-methyl-1H-pyrazol-3-yl]-5-(pyridin-4-ylamino)-1H-1,2,4-triazol-1-yl}ethanol]
390	3500	CCOc1cc(F)c(Cn2nc(-c3cc(Nc4ccncc4)n(C)n3)c(C)c2C2CC2)c(F)c1 [Example 2-3-1, 5′-cyclopropyl-1′-(4-ethoxy-2,6-difluorobenzyl)-1,4′-dimethyl-N-(pyridin-4-yl)-1H,1′H-3,3′-bipyrazol-5-amine]
≥ 20000	–	CCOc1cc(F)c(Cn2nc(-c3cc(Nc4ccncn4)n(CCS(C)(=O)=O)n3)c(C)c2C2CC2)c(F)c1 [Example 2-2-1, 5′-cyclopropyl-1′-(4-ethoxy-2,6-difluorobenzyl)-4′-methyl-1-[2-(methylsulfonyl)ethyl]-N-(pyrimidin-4-yl)-1H,1′H-3,3′-bipyrazol-5-amine]
91	–	CCOC(=O)c1cnccc1Nc1nc(-c2nn(Cc3c(F)cc(OCC)cc3F)c(C3CC3)c2C)nn1CCOC [Example 2-4-1, ethyl 4-({3-[5-cyclopropyl-1-(4-ethoxy-2,6-difluorobenzyl)-4-methyl-1H-pyrazol-3-yl]-1-(2-methoxyethyl)-1H-1,2,4-triazol-5-yl}amino)nicotinate]
680	–	CCOc1cc(F)c(Cn2nc(-c3cc(Nc4ccncn4)n(CCN4CCOCC4)n3)c(C)c2C2CC2)c(F)c1 [Example 2-1-1, 5′-cyclopropyl-1′-(4-ethoxy-2,6-difluorobenzyl)-4′-methyl-1-[2-(morpholin-4-yl)ethyl]-N-(pyrimidin-4-yl)-1H,1′H-3,3′-bipyrazol-5-amine]
13	–	CCOc1cc(F)c(Cn2nc(-c3nc(Nc4ccncc4)n(CCOC)n3)c3ccccc32)c(F)c1 [Example 2-5-1, N-{3-[1-(4-ethoxy-2,6-difluorobenzyl)-1H-indazol-3-yl]-1-(2-methoxyethyl)-1H-1,2,4-triazol-5-yl}pyridin-4-amine]
12	> 10000	CCOc1cc(F)c(Cn2nc(-c3nc(Nc4ccncc4)n(CCOC)n3)c(C)c2C2CC2)c(F)c1 [Example 2-3-2, N-{3-[5-cyclopropyl-1-(4-ethoxy-2,6-difluorobenzyl)-4-methyl-1H-pyrazol-3-yl]-1-(2-methoxyethyl)-1H-1,2,4-triazol-5-yl}pyridin-4-amine]
26	> 10000	CCOc1cc(F)c(Cn2nc(-n3cc(Nc4ccncn4)cn3)c3ccccc32)c(F)c1 [Example 2-6-1, N-{1-[1-(4-ethoxy-2,6-difluorobenzyl)-1H-indazol-3-yl]-1H-pyrazol-4-yl}pyrimidin-4-amine]
600	–	CCOc1cc(F)c(Cn2nc(-c3nc(Nc4ccncc4)nn3CCOC)c3ccccc32)c(F)c1 [Example 2-5-2, N-{5-[1-(4-ethoxy-2,6-difluorobenzyl)-1H-indazol-3-yl]-1-(2-methoxyethyl)-1H-1,2,4-triazol-3-yl}pyridin-4-amine]
1100	> 10000	CCOc1cc(F)c(Cn2nc(-c3cc(Nc4ccncn4)n(CC(=O)O)n3)c(C)c2C2CC2)c(F)c1 [Example 2-1-3, [5′-cyclopropyl-1′-(4-ethoxy-2,6-difluorobenzyl)-4′-methyl-5-(pyrimidin-4-ylamino)-1H,1′H-3,3′-bipyrazol-1-yl]acetic acid]
2200	9100	Fc1ccccc1Cn1nc(-c2nsc(Nc3ccncc3)n2)c2ccccc21 [Example 2-7-1, N-{3-[1-(2-fluorobenzyl)-1H-indazol-3-yl]-1,2,4-thiadiazol-5-yl}-pyridin-4-amine]
